Results from article PMC2535826, “Cross-Species Differential Plasma Protein Binding of MBX-102/JNJ39659100: A Novel PPAR-γ Agonist” (PPAR Research, 2008).
Substitutions are numbered along the chain they refer to. Several values for one entry are separate records, joined by “and”; a condition that tells them apart may be missing. Equal entries are not always repeated. Where two headings read alike, the source gives them in different places.

Tests used:
[1] = target: T1, Gal 4-Mouse PPAR-γ LBD (Mus musculus, UniProt P37238); assay: PPAR-γ reporter gene (transactivation) assay in HEK-293T cells with serum or serum proteins; type: cell-based; conditions: for EC50: 3 experiments
T1 construct: 5 μg Gal 4-Mouse PPAR-γ LBD; expressed in transfected cells; host or cells: HEK-293T
T1 sequence (P37238 238-503 limits assumed): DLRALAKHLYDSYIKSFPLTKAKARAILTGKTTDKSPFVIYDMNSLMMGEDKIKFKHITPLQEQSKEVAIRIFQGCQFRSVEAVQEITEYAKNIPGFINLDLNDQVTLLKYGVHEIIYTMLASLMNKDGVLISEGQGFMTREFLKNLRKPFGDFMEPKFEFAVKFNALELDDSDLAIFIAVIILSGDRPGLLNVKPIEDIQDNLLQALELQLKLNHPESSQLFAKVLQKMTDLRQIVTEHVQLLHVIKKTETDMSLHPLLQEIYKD
Method: All cells were maintained at 37°C in a humidified atmosphere of 8% CO2 in air.
For a pool sufficient to supply 100 wells, 6 million cells were diluted into medium for a total volume of 9 mL. The DNA-Lipofectamine 2000 mixture was prepared as per manufacturer’s instructions. For a pool sufficient to supply 100 wells, 5 μg Gal 4-Mouse PPAR-γ LBD, 5 μg pFR-Luciferase, and 500 ng Lac-z plasmids were mixed with 40 μL of Lipofectamine 2000 in Optimem medium in a total volume of 1 mL. The cell suspension was mixed with 1 mL of the DNA-Lipofectamine 2000 mixture. The mixture was plated into a 96-well plate and incubated for 4 hours at which time the transfection medium was removed and replaced with 100 μL DMEM, 10% (v/v) FBS and cultured overnight. The culture medium was then removed from the plates and replaced with 50 μL Pro293A medium. Compounds and charcoal stripped/delipidated serum or serum albumin, or alpha-1 acid glycoprotein stock solutions were prepared at 2X final concentration in Pro293A medium and mixed together prior to addition of 50 μL to the transfected cells and incubated for an additional 24 hours. Measurement of luciferase and fluorescence activity was performed according to the manufacturer’s instructions. Briefly, after removal of media, cells were incubated for 10 minutes in 100 μL of Steady-Glo reagent. An 80 μL lysate aliquot was transferred to opaque white well plates and the luminescence measured. The 80 μL aliquot was then transferred back to the original plate. […] Each experimental condition was assessed in quadruplicate. The data were normalized for each well by dividing the luminescence measurement by the fluorescence measurement. Dose-response curves were generated and EC50 values were calculated using Prism Graphpad version 5.1.

[2] = Plasma protein binding by equilibrium dialysis, mouse plasma; type: in vitro ADME, CD-1 mice; conditions: equilibrium dialysis vs PBS, 37°C, read-out: %Protein Binding ± SD (converted)
Method: (§1) Radiolabeled MBX-102 acid was prepared as a 1 mL ethanol solution at a concentration of 50 μM (1 mCi total). […] Final solvent concentrations were 1% of the total volume. Plasma was stored at −20°C. Prior to use, it was thawed and spun at approximately 2000 rpm for 5 minutes to remove any precipitated material. The pH was adjusted to pH 7.4 by careful addition of NaH2PO4. A 1 mL sample of spiked plasma was prepared by direct dilution of [^3H]-MBX-102 acid stock solution into plasma and then added to one side of an equilibrium dialysis chamber. The other chamber was filled with 1 mL of 0.01 M phosphate buffered saline (PBS). The dialysis apparatus was placed in a water bath at 37°C and rotated at 20 rpm. […] Once equilibrium was established, the contents of the cell chambers were removed and analyzed by liquid scintillation counting. The chambers were sampled in triplicate. […] The recovery percentage was found not to vary with MBX-102 acid concentration.

[3] = Plasma protein binding by equilibrium dialysis, human plasma; type: in vitro ADME; conditions: equilibrium dialysis vs PBS, 37°C, read-out: %Protein Binding ± SD (converted)
Method: as §1

[4] = target: T2, human serum albumin (Homo sapiens, UniProt P02768); assay: Albumin binding by surface plasmon resonance (SPR), HSA; conditions: for %Bound: converted from KD
T2 construct: purchased Sigma
Method: The characterization of the binding of MBX-102 acid against human, mouse, and rat albumin was performed using SPR-based biosensors (Biosensor Tools, Salt Lake City, Utah, USA). The assay methods used to assess the binding of MBX-102 acid to human, mouse, and rat albumins have been described previously. Briefly, each albumin was immobilized onto a CM5 sensor chip using standard amine coupling. Immobilization densities were between 10 000 and 13 000 RU. […] Each of the 16 different concentrations was tested in duplicate. […] All binding data were collected at 37°C. The binding response profile of MBX-102 acid over the three different albumin surfaces was evaluated and the binding constants for the high-affinity site were determined using a two-independent-site model. Conversion from KD to %bound was performed as previously described.

[5] = target: T3, human PPAR-γ ligand-binding domain (Homo sapiens, UniProt P37231); assay: Lanthascreen TR-FRET NCOR corepressor displacement assay; type: biochemical; conditions: for IC50: 3 experiments, mean ± SD, read-out: IC50 displacement of NCOR corepressor peptide
T3 construct: GST-PPARγ-LBD (5 nM), Tb-labeled anti-GST antibody (5 nM); purchased Invitrogen
T3 sequence (P37231 238-503 limits assumed): T1 sequence (P37238 238-503 limits assumed) with N93S, I98V, N146S, V226L, H245Q
Method: Assays were performed according to the manufacturer’s instructions. […] Life Science, Lowell, Mass, USA). […] The plate was covered and incubated for 4 hours at room temperature. The time resolved fluorescence resonance energy transfer (TR-FRET) signal was measured using a Pherastar fluorescence counter (BMG labtech, Offenburg, Germany). The ratio of the emission intensity of the acceptor (Fluorescein: λ = 520 nm) divided by the emission intensity of the donor (Tb: λ = 490 nm) was then calculated to determine the degree of NCOR binding. Each measurement was performed in quadruplicate.

T2 sequence (P02768 25-609): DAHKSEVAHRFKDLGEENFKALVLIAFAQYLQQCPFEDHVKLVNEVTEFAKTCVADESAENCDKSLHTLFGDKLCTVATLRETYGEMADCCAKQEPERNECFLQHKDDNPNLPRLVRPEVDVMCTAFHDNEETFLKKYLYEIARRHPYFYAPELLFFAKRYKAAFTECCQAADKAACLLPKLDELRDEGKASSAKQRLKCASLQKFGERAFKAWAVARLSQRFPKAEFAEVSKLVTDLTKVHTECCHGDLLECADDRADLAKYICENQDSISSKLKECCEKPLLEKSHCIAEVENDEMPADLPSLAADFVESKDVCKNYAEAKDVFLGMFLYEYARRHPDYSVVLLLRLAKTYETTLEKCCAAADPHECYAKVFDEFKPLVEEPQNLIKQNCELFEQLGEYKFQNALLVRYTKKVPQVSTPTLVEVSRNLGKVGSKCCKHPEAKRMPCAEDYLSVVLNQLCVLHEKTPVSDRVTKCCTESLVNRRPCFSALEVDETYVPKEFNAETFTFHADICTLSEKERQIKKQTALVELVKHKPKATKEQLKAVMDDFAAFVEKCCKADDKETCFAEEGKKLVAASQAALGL

O=C(O)[C@H](Oc1cccc(C(F)(F)F)c1)c1ccc(Cl)cc1 (stereo in doubt) [MBX-102 acid]
EC50 ([1]; 10% (v/v) human serum (Figure 2), mean ± SD, read-out: EC50 PPAR-γ activation): 288 ± 39.6 µM | fold change in mean EC50 relative to no serum ([1]; 10% human serum): 19 fold | EC50 ([1]; 10% human serum (Table 4, Figure 4), read-out: Mean EC50 ± SD, Human): 260 ± 16.9 µM | EC50 ([1]; 10% mouse serum (Table 4, Figure 4), read-out: Mean EC50 ± SD, Mouse): 170 µM | EC50 ([1]; 10% rat serum (Table 4, Figure 4), read-out: Mean EC50 ± SD, Rat): 196 ± 18 µM | EC50 ([1]; 20% (v/v) human serum (Figure 2), mean ± SD, read-out: EC50 PPAR-γ activation): 442 ± 29.8 µM | fold change in mean EC50 relative to no serum ([1]; 20% human serum): 29 fold | fraction unbound at 400 µM ([2]; CD-1, pH 7.4, MBX-102 acid 400 μM): 0.002 | fraction unbound at 600 µM ([2]; CD-1, pH 7.4, MBX-102 acid 600 μM): 0.003 | fraction unbound at 1000 µM ([2]; CD-1, pH 7.4, MBX-102 acid 1000 μM): 0.005 | fraction unbound at 1500 µM ([2]; CD-1, pH 7.4, MBX-102 acid 1500 μM): 0.002 | fraction unbound at 2000 µM ([2]; CD-1, pH 7.4, MBX-102 acid 2000 μM): 0.005 | fraction unbound at 400 µM ([3]; pH 7.4, MBX-102 acid 400 μM): 0.002 | fraction unbound at 600 µM ([3]; pH 7.4, MBX-102 acid 600 μM): 0.002 | fraction unbound at 1000 µM ([3]; pH 7.4, MBX-102 acid 1000 μM): 0.003 | fraction unbound at 2000 µM ([3]; pH 7.4, MBX-102 acid 2000 μM): 0.002 | %Bound [4]: > 98% | %Bound ([4]; listed as MBX-102): 99.1% | Kd ([4]; high-affinity site, two-independent-site model, 37°C, pH 7.4): 5.8 µM | IC50 ([5]; 0% serum): 11 µM and 10.6 µM | IC50 ([5]; 10% (v/v) human serum): 98.5 ± 6.6 µM | IC50 ([5]; 40% (v/v) human serum): 200 ± 6.4 µM | IC50 ([5]; 40% (v/v) mouse serum): 28.1 ± 2.6 µM | IC50 ([5]; 40% (v/v) rat serum): 57.9 ± 14.2 µM | fold shift in the IC50 ([5]; 40% human serum versus no serum): ≤ 19 fold | FC, IC50 fold change human-to-mouse serum ([5]; 40% serum): 7 and 7.17 | FC, IC50 fold change human-to-rat serum ([5]; 40% serum): 4 and 3.59
